Test results: US7250269B2, “Composition for assaying glycoprotein” (Asahi Kasei Pharma Corporation, priority 2001, dated 2007)
Like-named read-outs stand apart in the source and are kept apart here.

What was measured:
Protease type-XXIV [1] = test: Screening of globulin component-selective protease inhibitors (HSA substrate with/without γ-globulin); assay type: biochemical, Bacillus; settings: control 23.8
Source text: Using protease type-XXIV (manufactured by Sigma-Aldrich Co.) having high reactivity with the HSA substrate solution, components that decrease the protease reaction with the above globulin substrate solutions were screened based on the HSA substrate solution.
In the R-1 proteolytic reagent, as the deoxycholic acid amide, bisgluconamidopropyldeoxycholamide was used; as the cholic acid amide, 3-[(3-cholamidopropyl)dimethvlammonio]propane sulfonic acid, 3-[(3-cholamidopropyl)dimethylammonio]-2-hydroxypropane sulfonic acid, or bisgluconamidopropylcholamide was used; as the quaternary ammonium salt, benzyltriethylan chloride or benzyltri-n-butylammonium chloride was used; and as quatemary ammonium salt-type cationic surfactant, lauryltrimethylammonium chloride or lauryldimethylamine oxide was used.
• 1. HSA substrate solution: Albumin Human: 40 mg/ml, GA %=10.5% [manufactured by Wako Pure Chemical Industries, Ltd., the albumin concentration in the substrate solution was assayed using an albumin assay kit (albumin II-HA Test Wako; manufactured by Wako Pure Chemical Industries, Ltd.). GA % was assayed using a glycated albumin analyzer (GAA-2000, manufactured by ARKRAY, Inc.). • 2. γ-globulin addition substrate solution, 17.0 mg/ml of γ-globulin [γ-Globulins Human (manufactured by Sigma-Aldrich Co.), Fructosamine value=34 μM] was added to the above HSA substrate solution. <Reaction Procedure>
Absorbances at a wavelength of 546 nm were measured before and after the addition of R-2. The difference of the two measurements was regarded as the absorbance change. The same procedure was conducted using distilled water instead of the substrate to prepare a blank sample. In addition, a reaction solution without the addition of the globulin-selective protease inhibitor was used as a control.
ΔA (HSA) was calculated by subtracting the absorbance change of the blank sample from the absorbance change obtained for the HSA substrate solution. ΔA(+γ-globulin) was calculated by subtracting the absorbance change of the blank sample from the absorbance change obtained for the substrate solution to which γ-globulin was added. Effect of γ-globulin addition=(ΔA(+γ-globulin)−ΔA(HSA))/ΔA(HSA)×100(%)

Protease type-XXIV [2] = test: Screening of globulin component-selective protease inhibitors using Hb substrate solution; assay type: biochemical, Bacillus; settings: Hb substrate solution instead of HSA
Method: The same measurement was conducted using the Hb substrate solution instead of the HSA substrate solution, provided that when the Hb substrate solution was used, proteins were removed using trichloroacetic acid after the reaction with R-1, then the residue was neutralized and R-2 was added.

Protease type-XXIV [3] = assay type: biochemical, Bacillus
Method: 5 g/dl HSA (LOT38H7601; manufactured by Sigma-Aldrich Co.)
(§1) 8 μl of a sample was added to 240 μl of the proteolytic reagent incubated at 37° C. […] A relative sensitivity for the experiment using the reagent containing a stabilizer to the experiment using the reagent not containing a stabilizer was calculated assuming that ΔA0obtained using the reagent not containing a stabilizer and used without storing is 100%.

[4] = system: heat-stable type ascorbic acid oxidase (ASO-312); test: Effect of buffer agent types on stabilization of ascorbic acid oxidase ASO-312 in the presence of protease; assay type: biochemical; settings: pH 8.0, stored two days at room temperature
Method: 1 ml of the above mixed reaction reagent is placed in a small test tube and preheated at 30° C. for five minutes, then 0.10 ml of an appropriately diluted enzyme solution is added. The mixture is stirred to initiate the reaction. After the reaction for exactly 5 minutes, 3.0 ml of 0.2 N hydrochloric acid aqueous solution is added to terminate the reaction. Absorbance (As) at a wavelength of 245 nm is measured. For the blank test, 1 ml of the above reaction solution is placed in a small test tube and preheated at 30° C. for five minutes, then 3.0 ml of 0.2 N hydrochloric acid aqueous solution is added to terminate the reaction. 0.10 ml of an appropriately diluted enzyme solution is added and the mixture is stirred to measure the absorbance (Ab) at a wavelength of 245 nm. The enzyme activity is determined from the difference (Ab-As) between the absorbance (As) after the enzyme reaction and the blank test absorbance (Ab). The amount of enzyme oxidizing 1 μmol of ascorbic acid into dehydroascorbic acid in one minute at 30° C. is defined as 1 U. The calculation formula is shown below. Activity (U/ml)=[(Ab−As)/10.0]×[⅕]×[4.10/0.10]×[1/B] • 10.0: Molecular absorbance coefficient (mM) of ascorbic acid at 245 nm under the conditions of pH 1.0. • 5: Reaction time (min) • 4.10: Total reaction solution (ml) • 0.10: Amount of enzyme sample solution used for the reaction • B: Dilution magnification of the enzyme solution
The above reaction solutions were prepared using various buffer agents. A portion of each solution was used as a control after measuring the ascorbic acid oxidase activity. The above-described <<Method for Measuring the Activity of Ascorbic Acid Oxidase (ASOx)>> was employed for the activity measurement. The remaining portion of reaction solutions was stored for two days at room temperature, and the activity was measured in the same manner. The ratio of the activity after storage for two days at room temperature to the activity of the control was calculated to compare the stability of ascorbic acid oxidases.

[5] = molecular target: T1, Ascorbic acid oxidase (ASO-311) (Cucurbita maxima, UniProt P24792); settings: pH 8.0, stored two days at room temperature
T1 sequence (P24792 31-579): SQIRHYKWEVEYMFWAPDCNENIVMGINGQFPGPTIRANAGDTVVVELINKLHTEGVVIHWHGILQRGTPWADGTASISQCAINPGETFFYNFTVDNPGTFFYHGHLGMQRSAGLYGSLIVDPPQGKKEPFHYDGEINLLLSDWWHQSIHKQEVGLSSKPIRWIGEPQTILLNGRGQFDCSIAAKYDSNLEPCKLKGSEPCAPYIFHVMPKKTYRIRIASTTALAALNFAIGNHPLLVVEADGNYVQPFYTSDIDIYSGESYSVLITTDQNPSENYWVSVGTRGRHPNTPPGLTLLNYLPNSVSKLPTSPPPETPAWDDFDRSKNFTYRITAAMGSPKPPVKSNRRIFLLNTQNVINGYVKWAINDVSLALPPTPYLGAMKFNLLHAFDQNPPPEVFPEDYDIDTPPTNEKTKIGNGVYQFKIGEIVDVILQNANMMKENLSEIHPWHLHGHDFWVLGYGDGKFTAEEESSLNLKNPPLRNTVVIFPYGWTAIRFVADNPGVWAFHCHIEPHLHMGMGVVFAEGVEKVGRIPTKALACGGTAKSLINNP

Ascorbic acid oxidase = molecular target: T2, Ascorbic acid oxidase (Cucurbita maxima, UniProt P24792); settings: R-1 stored 24 hours at room temperature; FIG. 4
T2 sequence (P24792 31-579): T1 sequence (P24792 31-579)
Method: An ascorbic acid-addition substrate solution was prepared by adding one volume of ascorbic acid (1 g/dl) (manufactured by Kokusan Chemical Co., Ltd.) to nine volume of human pool blood serum. A solution prepared by adding distilled water instead of ascorbic acid was used as a control substrate solution.
8 μl of the control substrate solution or ascorbic acid-addition substrate solution was added to 240 μl of R-1 incubated at 37° C. The reaction was initiated at 37° C. and exactly 5 minutes thereafter 80 μl of R-2 was added. Absorbance at 555 nm was measured before the addition of R-2 and five minutes after the addition of R-2. ΔA0 was calculated by subtracting the absorbance change obtained from a blank sample using distilled water instead of the substrate solution from the absorbance change obtained from the absorbance measurement on the control substrate solution and ascorbic acid-addition substrate solution. The same reaction solution R-1 was stored at room temperature for 24 hours, and the absorbance was measured in the same manner to calculate ΔA24. The ratio of ΔA0 and ΔA24 obtained from the ascorbic acid-addition substrate solution was calculated assuming the absorbance change obtained from the control substrate solution as 100.

ASOx = test: Storage of ASOx with protease in HEPES buffer solution pH 8.0 (inventors' investigation); assay type: biochemical; settings: pH 8.0, protease and ASOx present
[6] = FOD enzyme activity / substrate specificity on glycated lysine; assay type: biochemical; settings: glycated lysine / glycated valine
Method: 164 strains of mutant colonies obtained in Example 15 were cultured for 16 hours at 30° C. in 1.5 ml of a 3.7% BHI liquid medium (manufactured by DIFCO Co.) containing 50 μg/ml of ampicillin and 1 mM of IPTG. 1 ml of the culture broth was centrifuged (15,000 G for one minute at 4° C.) to collect cells. 200 μl of 10 mM Tris-HCl buffer solution (pH 8.0) was added to the collected cells. After crushing the cells using an ultrasonic breaker, the mixture was centrifuged (14,000 G for five minutes at 4° C.) to obtain a cell extract as a supernatant.
The glycated amino acid substrate specificity of FOD-mutated recombinant contained in the cell extract prepared in Example 16 was measured using the above-mentioned FOD enzyme activity measuring method.
Synthesis of an oligonucleotide having the base sequence of 1-27 in the sequence table Sequence ID No. 7 was consigned to an outside source (BEX Co., Ltd.). The oligonucleotide was subjected to the site-directed mutagenesis using the Mutan-K kit (manufactured by Takara Shuzo Co., Ltd.) according to the manual attached to the kit. The mutant gene obtained was incorporated again into the expression plasmid pTV119N, introduced into Escherichia coli host, and cultured at 30° C. for 16 hours in a 3.7% BHI liquid medium containing 50 μg/ml of ampicillin and 1 mM of IPTG to produce mutant FOD protein.

R-FOD-II = test: Stabilization of enzyme reacting at least with glycated amino acid; assay type: biochemical; settings: for stabilization effect on glycated amino acid assay reagent (relative sensitivity): stored at 37° C. for two days, without stabilizer 30%, FIG. 6
Method: as §1, with “ΔA0 obtained” for “ΔA0obtained”

[7] = stored at 37° C. for 24 hours, without stabilizer 60%, FIG. 5
[8] = stored in a liquid state in a refrigerator

C[N+](C)(C)CC(=O)O [Betaine]
Effect of γ-globulin (%) (Protease type-XXIV [1]; additive concentration 0.10%): 7.6%
effect of inhibiting a protease reaction with globulin (Protease type-XXIV [2]): effect of inhibiting a protease reaction with globulin

C[S+](C)[O-] [DMSO, Dimethylsulfoxide]
decrease in performance of proteolytic reagent (Protease type-XXIV [3]; storage for 4 weeks at 37° C.): almost no decrease in performance
decrease in performance of proteolytic reagent (Protease type-XXIV [3]; stored at 37° C. for 24 hours, FIG. 5): almost no decrease in performance
stabilization effect on proteolytic reagent (relative sensitivity) (Protease type-XXIV [3]; [7]): stabilization effect
storage stability effect (Protease type-XXIV [3]; [8]): one year or more

O=S(=O)(O)CCCN1CCN(CCO)CC1 [EPPS]
Relative activity (%) ASO-312 ([4]; Pronase): 31%
Relative activity (%) ASO-312 ([4]; Protease type XXIV): 30%
Relative activity (%) ASO-311 ([5]; Pronase): 13%
Relative activity (%) ASO-311 ([5]; Protease type XXIV): 35%
ascorbic acid eliminating capability after storing (Ascorbic acid oxidase): almost no ascorbic acid eliminating capability

CCO [EtOH, Ethanol]
stabilization effect on proteolytic reagent (relative sensitivity) (Protease type-XXIV [3]): stabilization effect

O=S(=O)(O)CCN1CCN(CCO)CC1 [HEPES]
Relative activity (%) ASO-312 ([4]; Pronase): 37%
Relative activity (%) ASO-312 ([4]; Protease type XXIV): 34%
ascorbic acid treating capability after storage (ASOx; one day at 37° C.): lost almost entirely
ascorbic acid treating capability after storage (ASOx; two weeks at 10° C.): lost almost entirely
Relative activity (%) ASO-311 ([5]; Pronase): 17%
Relative activity (%) ASO-311 ([5]; Protease type XXIV): 31%
ascorbic acid eliminating capability after storing (Ascorbic acid oxidase): almost no ascorbic acid eliminating capability

O=S(=O)(O)CC(O)CN1CCN(CCO)CC1 (centres unmarked) [HEPPSO]
Relative activity (%) ASO-312 ([4]; Pronase): 34%
Relative activity (%) ASO-312 ([4]; Protease type XXIV): 22%
Relative activity (%) ASO-311 ([5]; Pronase): 14%
Relative activity (%) ASO-311 ([5]; Protease type XXIV): 37%
ascorbic acid eliminating capability after storing (Ascorbic acid oxidase): almost no ascorbic acid eliminating capability

C[C@H](CCC(=O)N(CCCNC(=O)[C@H](O)[C@@H](O)[C@H](O)[C@H](O)CO)CCCNC(=O)[C@H](O)[C@@H](O)[C@H](O)[C@H](O)CO)[C@H]1CC[C@H]2[C@@H]3[C@H](O)C[C@@H]4C[C@H](O)CC[C@]4(C)[C@H]3C[C@H](O)[C@]12C [N,N-Bis(3-D-gluconamidopropyl)cholamido]
Effect of γ-globulin (%) (Protease type-XXIV [1]; additive concentration 1.0%): 21.0%

C[C@H](CCC(=O)N(CCCNC(=O)[C@H](O)[C@@H](O)[C@H](O)[C@H](O)CO)CCCNC(=O)[C@H](O)[C@@H](O)[C@H](O)[C@H](O)CO)[C@H]1CC[C@H]2[C@@H]3CC[C@@H]4C[C@H](O)CC[C@]4(C)[C@H]3C[C@H](O)[C@]12C [N,N-Bis(3-D-gluconamidopropyl)deoxycholamido]
Effect of γ-globulin (%) (Protease type-XXIV [1]; additive concentration 1.0%): 19.9%

CCCCCCCCO[C@@H]1O[C@H](CO)[C@@H](O)[C@H](O)[C@H]1O [Octylglucoside]
Effect of γ-globulin (%) (Protease type-XXIV [1]; additive concentration 1.0%): 18.5%

O=S(=O)(O)CC(O)CN1CCN(CC(O)CS(=O)(=O)O)CC1 (centres unmarked) [POPSO]
Relative activity (%) ASO-312 ([4]; Pronase): 80%
Relative activity (%) ASO-312 ([4]; Protease type XXIV): 56%
Relative activity (%) ASO-311 ([5]; Pronase): 80%
Relative activity (%) ASO-311 ([5]; Protease type XXIV): 62%
ascorbic acid eliminating capability after storing (Ascorbic acid oxidase): no change

O=P(O)(O)O [Phosphoric acid, phosphoric acid]
Relative activity (%) ASO-312 ([4]; Pronase): 108%
Relative activity (%) ASO-312 ([4]; Protease type XXIV): 86%
Relative activity (%) ASO-311 ([5]; Pronase): 88%
Relative activity (%) ASO-311 ([5]; Protease type XXIV): 77%

N=C(N)NCCC[C@H](N)C(=O)O [Reactive 327th amino acid Arginine]
Reactivity ratio, glycated lysine / glycated valine [6]: 440

C[C@@H](O)[C@H](N)C(=O)O [Reactive 327th amino acid Threonine]
Reactivity ratio, glycated lysine / glycated valine [6]: 927

[Ca+2].[Cl-].[Cl-] [calcium chloride, Calcium chloride]
decrease in performance of proteolytic reagent (Protease type-XXIV [3]): almost no decrease in performance
stabilization effect on proteolytic reagent (relative sensitivity) (Protease type-XXIV [3]): stabilization effect
storage stability effect (Protease type-XXIV [3]): one year or more
stabilization effect on glycated amino acid assay reagent (relative sensitivity) (R-FOD-II): stabilization effect

NCC(=O)O [glycine, Glycine]
decrease in performance of glycated amino acid assay reagent (R-FOD-II; storage for four weeks at 37° C.): almost no decrease in performance
stabilization effect on glycated amino acid assay reagent (relative sensitivity) (R-FOD-II): stabilization effect
storage stability effect (R-FOD-II; [8]): one or more years
Kcat Reactivity ratio (a)/(b) [6]: 365

[Cl-].[Na+] [sodium chloride, Sodium chloride]
stabilization effect on proteolytic reagent (relative sensitivity) (Protease type-XXIV [3]; [7]): stabilization effect

Alkylbenzyldimethylammonium chloride
Effect of γ-globulin (%) (Protease type-XXIV [1]; additive concentration 1.0%): 23.2%

Concanavalin A
Effect of γ-globulin (%) (Protease type-XXIV [1]; additive concentration 0.21 mg/ml): 14.9%
effect of inhibiting a protease reaction with globulin (Protease type-XXIV [2]): effect of inhibiting a protease reaction with globulin

Triethanolamine lauryl sulfate [TEALS]
stabilization effect on proteolytic reagent (relative sensitivity) (Protease type-XXIV [3]; [7]): stabilization effect

trishydroxymethylaminomethane
Relative activity (%) ASO-312 ([4]; Pronase): 62%
Relative activity (%) ASO-312 ([4]; Protease type XXIV): 44%
Relative activity (%) ASO-311 ([5]; Pronase): 55%
Relative activity (%) ASO-311 ([5]; Protease type XXIV): 52%
ascorbic acid eliminating capability after storing (Ascorbic acid oxidase): no change
